Laboratory results from a melting point compilation (Tetko et al.; mined from patent text by program, amines drawn as free bases though some values may be those of a salt).

SMILES | melting point [°C]
CCCc1nc(SC(F)F)c(C(=O)O)n1Cc1ccc(-c2ccccc2S(=O)(=O)NC(=O)NCc2ccc(F)cc2)cc1 | 122
COC(=O)c1ccc(SC)c(N)c1 | 63 to 65
O=[N+]([O-])c1ccc(C2OCCO2)nc1 | 104 to 105
Cc1c(S(=O)c2cc(Cl)c(Cl)cc2Cl)cc(C(C)(C)C)c(O)c1C(=O)Nc1ccc([N+](=O)[O-])cc1C(F)(F)F (stereo not given) | 234 to 235
COc1ccc(CBr)cc1S(=O)(=O)NC(C)(C)C | 137 to 142
O=Cc1ccc(C(=O)O)c(SCc2ccccc2)c1 | 182 to 190
CCOC(=O)C(=CNc1ccnn1Cc1ccncc1)C(=O)OCC | 95 to 97
Cc1ccccc1C(CCC(=O)O)Oc1cc(OCc2ccsc2)ccc1C(=O)NC(Cc1ccccc1)C(=O)O (stereo not given) | 178 to 180
CC1NC(=O)Nc2ccc(C(=O)CBr)cc21 (stereo not given) | 188 to 190
CC(C)(O)c1ccc(-c2cnc3c(n2)N(CC2CCOCC2)CC(=O)N3)cn1 | 268 to 269
O=C(O)/C=C(\c1cc(F)cc(F)c1)C(F)(F)F | 129 to 130
CCOc1cc(C(CS(C)(=O)=O)N2C(=O)c3cccc(CNC(C)=O)c3C2=O)ccc1OC (stereo not given) | 84 to 86
COc1ccc(CN2C(=O)[C@H]([C@@H](C)O)[C@H]2[C@@H]2COC(C)(C)O2)c(OC)c1 | 145 to 146
CC(=O)Nc1ccc(C(=O)c2cc(-c3ccc(NC(C)=O)cc3)c(N3CCOCC3)s2)cc1 | 152
O=C(O)c1ccc(-c2coc3ccccc23)cc1 | 222 to 225
CC(C)c1nc2cc(COc3ccc(C=O)cc3)ccc2o1 | 86 to 88
CCN1CNS(=O)(=O)c2cc(Br)ccc21 | 122 to 124
Cc1ccc(CC2(O)CCN(C(C)C(=O)Nc3ccc(O[Si](C)(C)C(C)(C)C)cc3)CC2)cc1 (racemic) | 134 to 138
COc1ccc(Cl)cc1C(=O)NCCc1ccc(I)c(S(=O)(=O)N=CN(C)C)c1 | 183 to 186
CSC(=Nc1ccccc1C(=O)NC(C)C)NC(=O)c1ccccc1 | 117 to 120
C=C1CC1(c1ccc(OC)cc1)c1ccc(OC)cc1 | 31 to 32
O=C(O)c1ccc2oc3c(c(=O)c2c1)CCC3=Cc1ccccn1 | 325 to 328
c1snc2c1Sc1csnc1S2 | 190 to 191
CCCCCCCCOc1cc(-c2cccc(C(F)(F)F)c2)c(OCC(=O)O)c(-c2cccc(C(F)(F)F)c2)c1 | 75 to 77
CNC(=O)c1cc(Oc2ccc(N)c(F)c2)ccn1 | 140 to 141

SMILES | melting point [°C]
CC(c1ccccc1)N(C=O)C(C#N)C=O (single isomer, unassigned; (+)) | 245
CCCc1c(C(=O)C(C)C)c2ccc(C(=O)O)cc2n1Cc1ccccc1F | 212 to 213
Cc1cc(-n2ccnc2)ccc1N | 131 to 134
CC(C)(C)OC(=O)NCOc1ccccc1C(=O)OCC#N | 144 to 146
O=C(O)c1ccc(S(=O)(=O)Oc2ccc(-c3ccc(-c4c(Cc5ccccc5)oc5ccccc45)cc3)cc2[N+](=O)[O-])cc1O | 75
Nc1ccc(C#CCCN2CCC(O)(c3ccc(Cl)cc3)CC2)cc1 | 134 to 136
COC(=O)C1=CC(C)(N)NC(C2CC2)=N1 (stereo not given) | 152 to 153
O=C(O)Cc1ccccc1Sc1ccc(F)c(F)c1 | 54 to 57
O=C(NCC1Cc2cccc(-c3ccc(C(F)(F)F)cc3)c2O1)OCc1ccccc1 (stereo not given) | 100 to 102
Cc1cc(C)c(S(=O)(=O)NCCS)c(C)c1 | 73
CC(=O)O[C@H]1CCNC1=O | 85.5 to 87
CS(=O)(=O)c1ccc(-n2nc(C(F)(F)F)cc2-c2ccc(C#CCCCO)cc2)cc1 | 87 to 90
CCN1C(=O)C(C)(C)N=C(c2ccccc2F)c2cc([N+](=O)[O-])cc(Cl)c21 | 156
COc1cc2c(cc1Nc1ncc(Cl)c(Nc3ccccc3S(=O)(=O)N(C)C)n1)CCN(CC(C)O)CC2 (stereo not given) | 183 to 185
COC(=O)C(C)(N)Cc1csc2ccccc12 (stereo not given) | 44 to 45
NS(=O)(=O)c1cc(C(=O)O)cc([N+](=O)[O-])c1OCC(F)(F)F | 195 to 197
Nc1nccnc1Cc1ccccc1 | 93 to 96
CCCCN(CCCC)c1ccc(C(=O)c2ccccc2C(=O)O)cc1 | 171 to 172
Clc1cc(Cl)cc(-c2n[nH]cc2Cl)c1 | 192
CCCc1ccc(S(=O)(=O)c2ccccc2)cc1 | 83 to 85
CC(O)CN(CC(C)O)C1CC(C)(C)NC(C)(C)C1 (stereo not given) | 97 to 102
Fc1cc2c(cc1F)Sc1cc(F)c(F)cc1S2 | 108
Brc1ccc2nc(-c3coc4ccccc34)cn2c1 | 151 to 153
Cc1nnc(Sc2c(C)cccc2C)o1 | 53 to 54
O=C(O)c1ccc(NCc2sc(Cl)cc2Cl)cc1 | 169 to 170
